The values that follow come from patent US20200281873A1, “Adamantane or Bicyclic Monoterpenoid Derivatives for Use in the Treatment of Leishmaniasis” (Commissariat a l'Energie Atomique et aux Energies …, priority 2017, published 2020).

Where two headings read alike, the source gives them in different places.

A short description of data set [1]: Incubation of VP343 with human hepatic microsomes (LC-MS). Type of data set: in vitro ADME. Particulars: t = 45 min. The procedure: (§1) The metabolites' identification of VP343 was performed after incubation of the compound with hepatic microsomal preparations from mouse, dog and human origin. The assay was performed by mixing VP343 at 5; 4; 2 or 1 μM with CD1 mouse hepatic microsomes (reference MIC255030 Biopredic) at 0.5 mg/mL of protein, or Beagle dog hepatic microsomes (reference MIC257013 Biopredic) at 1 mg/mL of protein, or human hepatic microsomes (reference MIC159882 Biopredic) at 1 mg/mL of protein, together with 1 mM NADPH (reference N1630 Sigma Aldrich), a phase I reaction's cofactor, in a 0.1 M phosphate buffer pH 7.4. Samples were then incubated in a Thermomixer® (Eppendorf) at 37° C. and 300 rotations per minute. After 45 minutes of incubation, the reaction was stopped with acetonitrile (0.5 volume of the experimental incubation volume). The samples' supernatants were then separated from the microsomes by centrifugation at 20,000 g during 10 minutes (Sorvall ST 16, Thermo Fisher Scientific) before analysis by liquid chromatography coupled to mass spectrometry (LC-MS).
(§2) The analysis was performed in two steps: first, on a positive electrospray ionisation source using a Waters Acquity I class UPLC (Ultra Performance Liquid Chromatography) system coupled to a Waters triple quadrupole mass spectrometer (Xevo TQMS) and then on an orbitrap source using a Thermo Fisher UHPLC (Ultra High Performance Liquid Chromatography) system (Ultimate 3000) coupled to a Thermo Fisher orbitrap mass spectrometer (Q Exactive) to confirm the structures of the identified metabolites. VP343 and his metabolites were separated by the UPLC system with a six minutes gradient of acetonitrile containing 0.1% of formic acid in a BEH C18 column (1.7 μm, 2.1×50 mm, Waters) with a mobile phase flow rate of 0.6 mL/min.
(§3) The metabolization of VP343 was studied by incubating the compound with mouse, dog, and human hepatic microsomes. The concentration of VP343 in the microsomal preparations was measured at t=0 and at t=45 min by liquid chromatography-tandem mass spectrometry (LC-MS). […]

For data set [2], the system named is L. infantum intramacrophagic amastigotes. The experiment in a line: L. donovani infantum/RAW 264.7 macrophage model (intramacrophagic amastigotes, SYBR Green I). It counts as cell-based, Leishmania donovani infantum. The note with it: Leishmania infantum, Macrophage. The method, then:
Protocol for Evaluation on the L. donovani infantum/RAW 264.7 Macrophage Model (Intramacrophagic Amastigotes)
Mouse macrophage cells RAW 264.7 (ATCC) were seeded into a 96-well microplate and maintained in DMEM medium (Applied Biosystems, France) supplemented with 10% heat-inactivated fetal bovine serum in a 5% CO2 incubator at 37° C. for 24 h. Then, the medium was replaced with 100 μL fresh medium containing a suspension of 10^5 L. infantum amastigotes and the incubation time was 16 h. Then, extracellular parasites were eliminated from the medium and 100 μL fresh medium containing compound in various concentrations were added for a 48 h-incubation. Parasite growth was determined by using SYBR® Green I (Life technology, Fisher Scientific, France), a dye with marked fluorescence enhancement upon contact with DNA. The cell lysis suspension was diluted 1:1 in lysis buffer (10 mM NaCl, 1 mM Tris HCl pH8, 2.5 mM EDTA pH 8, 0.05% SDS, 0.01 mg/mL proteinase K and 10×SYBR Green I). Incorporation of SYBR Green I in DNA amplification was measured using the Master epRealplex cycler® (Eppendorf, France) according to the following program to increase the SYBR green incorporation: 90° C. for 1 min, decrease in temperature from 90° C. to 10° C. for 5 min with reading the fluorescence at 10° C. for 1 min and a new reading at 10° C. for 2 min. The EC50 as the concentration inhibiting the parasite growth by 50% was calculated by nonlinear regression using icestimator website 1.2 version: http://www.antimalarial-icestimator.net/MethodIntro.htm.

Data set [3] is described as follows: Incubation of VP343 with dog hepatic microsomes (LC-MS). Type of data set: in vitro ADME. The note with it: for VP343 residual concentration: t = 45 min. The method, then:
as §1, §2
The metabolization of VP343 was studied by incubating the compound with mouse, dog, and human hepatic microsomes. The concentration of VP343 in the microsomal preparations was measured at t=0 and at t=45 min by liquid chromatography-tandem mass spectrometry (LC-MS). About 5% to 50% of VP343 remained after 45 min of incubation with mouse microsomes according to experiments (Table VI and FIG. 3, respectively). About 5% of VP343 remained with dog microsomes. About 40 to 55% remained with human microsomes.

A short description of data set [4]: VP343 metabolites' identification by LC-MS in hepatic microsome supernatants. It counts as in vitro ADME. Particulars: supernatants of mouse, dog and human hepatic microsomes incubated with VP343 for 45 min. The method, then:
as §1, with “The samples' supernatants were then separated from the microsomes by centrifugation at 20,000 g during 10 minutes (Sorvall ST 16, Thermo Fisher Scientific) before analysis by liquid chromatography coupled to mass spectrometry (LC-MS).” left out
In each analytical system, the identification was performed in two steps. […] This means that, in a define range mass (m/z 250 to 450), each ion present in the sample should be detected. […] By adding collision energy, the products ions of the targeted metabolites were monitored to validate the supposed metabolite's structure obtained after injecting the sample in full scan mode.
To further investigate the number and nature of the metabolites, supernatants from mouse, dog and human hepatic microsomes incubated with VP343 for 45 min were analyzed by LC-MS (cf. protocol).

A short description of data set [5]: In vivo toxicity evaluation by oral route in mice (serum biochemical parameters). On the set-up: species or system Balb/C female mice. The method, then:
Biochemical parameters relative to VP343 and VP370 toxicity in Balb/C female mice (18-20 g) after a single treatment by oral route at 100 mg/kg under a 0.1 mL volume (=5 mL/kg). Serum were collected one week after the treatment. Excipient: Methylcellulose 1%+Tween 0.1%.
Dosages were performed with a Cobas 800 (Roche/Hitachi) apparatus.

Data set [6] in a line: Incubation of VP343 with mouse hepatic microsomes (LC-MS). It counts as in vitro ADME. The note with it: t = 45 min. The procedure:
as §1, §2, §3

The mark [7] stands for this setting: single oral treatment 100 mg/kg, serum one week after treatment.

The term IC50 denotes the concentration that gives 50% inhibition. For `COc1ccc(Br)cc1CN(C)C12CC3CC(CC(C3)C1)C2` [VP343], the VP343 residual concentration came to 0.41 µM in data set [1] (initial concentration 1 μM); 1.08 µM in data set [1] (initial concentration 2 μM); 1.62 µM in data set [1] (initial concentration 4 μM); 0.03 µM in data set [3] (initial concentration 1 μM); 0.09 µM in data set [3] (initial concentration 2 μM); 0.12 µM in data set [3] (initial concentration 4 μM). Also, the VP343 residual concentration in data set [6] (initial concentration 1 μM) amounted to 0.08 µM; in data set [6] (initial concentration 2 μM), 0.09 µM; in data set [6] (initial concentration 4 μM), 0.25 µM. In addition, the IC50 in data set [2] (Table II, 3 different experiments, SYBR Green I method, read-out: IC50 intramacrophagic) was 0.04 µM; in data set [2] (cf. Table II, read-out: IC50 (intramacrophage amastigotes)), 0.04 µM. Moreover, the “VP343 remaining after incubation” value in data set [3] (45 min) is “About 5%”. The “Number of metabolites detected” value in data set [4] was found to be 11. Besides, the “Serum AST ± SD” value in data set [5] (setting [7]) worked out at 391 ± 72 U/L. Also, the “Serum AST ± SD (second AST column)” value in data set [5] (setting [7]) is 169 ± 34 U/L. The Serum creatinin in data set [5] (setting [7]) was <18 µM. The “Toxicity after single oral treatment (in words)” value in data set [5] (single treatment by oral route at 100 mg/kg) is “did not show toxicity”.
